Laboratory results published in US20050090522A1 (priority 2001, published 2005).
Like-named read-outs stand apart in the source and are kept apart here.

Columns and labels:
[1] = Rat IV and PO pharmacokinetic studies; conditions: for clearance / AUC(0-t): male, Sprague-Dawley, in vivo; for clearance: iv, 1 mg/kg, CL; for clearance / CL, iv: iv dosing at 1 mg/kg; for AUC(0-t): po, 5 mg/kg
Experimental: Rat Pharmacokinetic Studies: For the IV and PO pharmacokinetic studies of compounds in rats, the compound was dissolved in PEG-400/ethanol (90/10) as a solution. Rat. Male Sprague-Dawley rats (300-350 g, Hilltop Lab Animals, Inc., Scottdale, Pa.) with cannulas implanted in the jugular vein were used. The rats were fasted overnight in the PO pharmacokinetic studies. Blood samples of 0.3 ml were collected from the jugular vein in EDTA-containing microtainer tubes (Becton Dickinson, Franklin Lakes, N. J.), and centrifuged to separate plasma. In the IV study, the test compound was delivered at 1 mg/kg as a bolus over 0.5 min (n=3). […] Quantitation of Compounds in Plasma. […] The resulting supernates were separated from the precipitated proteins by centrifugation for 10 minutes and transferred to autosampler vials. Samples were either prepared manually, or with the use of the Tomtec automated liquid handler. An aliquot of 5 μL was injected for analysis. The HPLC system consisted of two Shimadzu LC10AD pumps (Columbia, Md.), a Shimadzu SIL-HTC autosampler (Columbia, Md.), and a Hewlett Packard Series 1100 column compartment (Palo Alto, Calif.). The column was a YMC Pro C18 (2.0×50 mm, 3 μm particles, Waters Co., Milford, Mass.), maintained at 60° C. and a flow rate of 0.3 ml/min. The mobile phase consisted of 10 mM ammonium formate and 0.1% formic acid in water (A) and 100% 10 mM ammonium formate and 0.1% formic acid in methanol (B). […] The mobile phase was then returned to initial conditions and the column re-equilibrated for 1 minute. Total analysis time was 4 minutes. The HPLC was interfaced to a Micromass Quattro LC. Ultra high purity nitrogen was used as the nebulizing and desolvation gas at flow rates of 100 L/hr for nebulization and 1100 L/hr for desolvation. The desolvation temperature was 300° C. and the source temperature was 150° C. Data acquisition utilized selected reaction monitoring (SRM). Ions representing the (M+H)^+ species for the compound and the internal standard were selected in MS 1 and collisionally dissociated with argon at a pressure of 2×10^−3 torr to form specific product ions which were subsequently monitored by MS2.
(§1) For accuracy, the determined measure of viral inhibition is an EC50; but the minimum plasma concentrations which should be maintained in a patient is generally believed to be at least four or five fold higher. […] Lower is better. • 4) Estimating potential exposure in man by measuring parameters such as AUC and rate of clearance by oral and iv dosing in rats. High exposure and low clearance was desired.
The rat model is an initial model used to assess potential for exposure in man.

HIV-1 = HIV-1 single-round infectious luciferase reporter virus (pseudotype) assay in HeLa CD4 CCR5 cells; type: cell-based
Method in brief: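 HeLa CD4 CCR5 cells (5×10^4/well, DMEM + 10% FBS) were treated with compound (final <10 μM) and infected with single-round luciferase reporter virus made in 293 cells, at MOI ~0.01. Luciferase was read 72 h post infection. EC50 came from 10-concentration percent-inhibition curves fitted to a four-parameter logistic model.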

[2] = Metabolic stability in pooled human liver microsomes (HLM); conditions: pooled human liver microsomes, 3 μM drug; Low/Intermediate/High
Experimental: Metabolic Stability Studies of compounds in Liver Microsomes. The metabolic stability of compounds were investigated in pooled liver microsomes from humans. The human liver microsomes were obtained from BD Gentest (Lot #16, Woburn, Mass.) with a protein concentration of 20 mg/ml and a total cytochrome P450 (CYP) concentration of 0.55 nmol/mg protein. A stock solution of drug was prepared in acetonitrile at 1 mM. […] The incubation media consisted of potassium phosphate buffer (0.1 M, pH 7.4), liver microsomes (final concentration 0.9 mg/ml), magnesium chloride (0.033 mM), and a NADPH-regenerating system. […] The test compound was pre-incubated in the media for 2 min. The reaction was initiated by the addition of the cofactors. The incubation was carried out at 37° C. for 10 min. The reaction was terminated by drawing an aliquot of 100 μL from the incubation and adding into 200 μL of acetonitrile containing a reference compound as an […] analytical standard. Following vortex-mixing and centrifugation, an aliquot of 10 μL of the supernatant was analyzed by LC/MS.
GUIDELINES can be used to categorized test substances as low, intermediate or highly cleared compounds.
as §1
The stability of compounds were also evaluated to determine metabolic stability when incubated in in vitro preparations of human liver microsomes (HLM). This is one commonly used predictive system for evaluating the potential for human metabolism and projecting clearance rates in man. Compounds with low clearance rates were most desireable.

HeLa cells = experiment: Cytotoxicity assay in HeLa cells (MTT dye reduction, CC50); conditions: cytotoxicity; Yes = CC50 above 100 uM, No = not
Method in brief: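 HeLa cells expressing CD4 and CCR5, grown in DMEM with 10% FBS, were used for cytotoxicity testing by MTT dye reduction; the text gives no further cytotoxicity conditions. The parallel antiviral assay exposed the same cells to compound at final <10 μM for 72 h.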

[3] = AUC 24 h, oral dosing at 5 mg/kg
[4] = Human immunodeficiency virus 1, HeLa-CD4/CCR5, read-out: EC50 Group from Table 1, Table 2-1, HeLa CD4 CCR5 cells, single-round luciferase reporter virus
[5] = Human immunodeficiency virus 1, HeLa-CD4/CCR5, read-out: EC50 category, HIV-1 single-round reporter virus assay, category 1/2/3 per Table A1 key
[6] = Human immunodeficiency virus 1, HeLa-CD4/CCR5, read-out: EC50 Group from TABLE 1, HeLa CD4 CCR5 cells, single-round infectious luciferase reporter virus
[7] = Human immunodeficiency virus 1, HeLa-CD4/CCR5, read-out: EC50 Group from Table 1, Table 4, HeLa CD4 CCR5 cells, single-round luciferase reporter virus

SMILES	clearance [1] [mL/min/kg]	AUC(0-t) [1, 3] [ng·h/mL]	EC50 (HIV-1; [4]) [nM]	EC50 (HIV-1; [5]) [nM]	HLM predicted human clearance class [2]	CC50 > 100 uM (HeLa cells)	EC50 (HIV-1; [6]) [nM]	CL, iv [1] [mL/min/kg]	AUC(0-t) [1] [ng·h/mL]	EC50 (HIV-1; [7]) [nM]	AUC 24 h ([1]; oral dosing at 5 mg/kg) [ng·h/mL]	EC50 (HIV-1; Human immunodeficiency virus 1, HeLa-CD4/CCR5, 72 h, read-out: EC50 Group from Table 1, HeLa CD4 CCR5 cells, luciferase reporter virus, harvested 72 h after infection) [nM]
COc1cnc(-n2cnc(C)n2)c2[nH]cc(C(=O)C(=O)N3CCN(C(=O)c4ccccc4)[C@H](C)C3)c12 [Example 317]	1.9 ± 0.26	43000 ± 12000	< 1000	< 0.2	Low (0-0.100)	Yes	–	–	–	–	–	–
COc1cnc(-n2ccc(CO)n2)c2[nH]cc(C(=O)C(=O)N3CCN(C(=O)c4ccccc4)[C@H](C)C3)c12 [Example 236, (R)-1-benzoyl-2-methyl-4-[(4-methoxy-7-(3-hydroxylmethyl-pyrazol-1-yl)-6-azaindol-3-yl)-oxoacetyl]piperazine]	29 ± 6.7	560 ± 250	< 1000	< 0.2	Low (0-0.100)	Yes	–	–	–	–	–	–
COc1cnc(-n2ccnn2)c2[nH]cc(C(=O)C(=O)N3CCN(C(=O)c4ccccc4)CC3)c12 [Example 188, 1-benzoyl-4-[(4-methoxy-7-(1,2,3-triazol-1-yl)-6-azaindol-3-yl)-oxoacetyl]piperazine]	2.4 ± 0.08	20000 ± 4600	–	< 0.2	Low (0-0.100)	Yes	< 1000	–	–	–	–	–
O=C(C(=O)N1CCN(C(=O)c2ccccc2)CC1)c1c[nH]c2c(-c3cnco3)ncc(F)c12 [Example 145]	–	12000 ± 3800	–	< 0.2	–	–	< 1000	1.4 ± 0.29	–	–	–	–
CCc1ncn(-c2ncc(OC)c3c(C(=O)C(=O)N4CCN(C(=O)c5ccccc5)[C@H](C)C4)c[nH]c23)n1 [Example 322]	1.8 ± 0.4	82000 ± 23000	< 1000	< 0.2	Low (0-0.100)	Yes	–	–	–	–	–	–
COc1cnc(-n2cnc(C)n2)c2[nH]cc(C(=O)C(=O)N3CCN(C(=O)c4ccccc4)CC3)c12 [Example 316]	–	–	–	< 0.2	–	–	< 1000	–	52000 ± 12000	–	–	–
O=C(C(=O)N1CCN(C(=O)c2ccccc2)CC1)c1c[nH]c2c(-n3nccn3)ccnc12 [Example 205, 1-(4-benzoyl-piperazin-1-yl)-2-(7-[1,2,3]triazol-2-yl-1H-pyrrolo[3,2-b]pyridin-3-yl)-ethane-1,2-dione]	5.4 ± 0.4	9600 ± 1200	–	0.2 to 1000	Low (0-0.100)	Yes	–	–	–	< 1000	–	–
O=C(C(=O)N1CCN(C(=O)c2ccccc2)CC1)c1c[nH]c2c(-c3ncco3)ccnc12 [Example 204]	10 ± 1.3	12000 ± 1400	–	0.2 to 1000	Low (0-0.100)	Yes	–	–	–	< 1000	–	–
COc1cnc(-n2cncn2)c2[nH]cc(C(=O)C(=O)N3CCN(C(=O)c4ccccc4)[C@H](C)C3)c12 [Example 245, (R)-1-benzoyl-2-methyl-4-[(4-methoxy-7-(1,2,4-triazol-1-yl)-6-azaindol-3-yl)-oxoacetyl]piperazine]	5.6 ± 1.8	12100 ± 1300	< 1000	< 0.2	Low (0-0.100)	Yes	–	–	–	–	–	–
Cc1ncn(-c2ncc(F)c3c(C(=O)C(=O)N4CCN(C(=O)c5ccccc5)CC4)c[nH]c23)n1 [Example 306]	0.39 ± 0.07	160000 ± 11000	–	< 0.2	Low (0-0.100)	–	< 1000	–	–	–	–	–
COc1cnc(-n2ccnc2)c2[nH]cc(C(=O)C(=O)N3CCN(C(=O)c4ccccc4)CC3)c12 [Example 193, 1-benzoyl-4-[(4-methoxy-7-(1-imidazolyl)-6-azaindol-3-yl)-oxoacetyl]piperazine]	4.5 ± 0.4	14000 ± 8000	–	< 0.2	Low (0-0.100)	No	< 1000	–	–	–	–	–
COc1ncc(-c2nccc3c(C(=O)C(=O)N4CCN(C(=O)c5ccccc5)C[C@H]4C)c[nH]c23)c(OC)n1 [Example 12, 1-benzoyl-3-®-methyl-4-[(7-(2,4-dimethoxy-pyrimidin-5-yl)-6-azaindol-3-yl)-oxoacetyl]piperazine]	–	–	–	–	–	–	–	11.9 ± 1.8	–	–	4700 ± 1100	–
COc1cnc(-c2cnccn2)c2[nH]cc(C(=O)C(=O)N3CCN(C(=O)c4ccccn4)CC3)c12 [Example 102, 1-picolinoyl-4-[(4-methoxy-7-(pyrazin-2-yl)-6-azaindol-3-yl)-oxoacetyl]piperazine]	12 ± 5.5	6900 ± 1300	–	0.2 to 1000	Low (0-0.100)	Yes	< 1000	–	–	–	–	–
O=C(C(=O)N1CCN(C(=O)c2ccccc2)CC1)c1c[nH]c2c(-n3ccnn3)ncc(F)c12 [Example 216]	–	32000 ± 12000	–	< 0.2	Low (0-0.100)	–	< 1000	–	–	–	–	–
COc1cnc(-c2ncon2)c2[nH]cc(C(=O)C(=O)N3CCN(C(=O)c4ccccc4)CC3)c12 [Example 226]	24.5 ± 3	500 ± 130	–	< 0.2	Low (0-0.100)	Yes	< 1000	–	–	–	–	–
C[C@@H]1CN(C(=O)C(=O)c2c[nH]c3c(-c4nccs4)ccnc23)CCN1C(=O)c1ccccc1 [Example 354]	11.2 ± 0.8	1260	–	0.2 to 1000	Low (0-0.100)	Yes	–	–	–	–	–	< 1000
Cc1ccc(-c2nccc3c(C(=O)C(=O)N4CCN(C(=O)c5ccccc5)C[C@H]4C)c[nH]c23)cc1N [Example 3, 1-benzoyl-3-®-methyl-4-[(7-(3-amino-4-methylphenyl)-6-azaindol-3-yl)-oxoacetyl] piperazine]	–	–	–	–	–	–	–	1.3 ± 4.0	–	–	6300 ± 2700	–
Cc1noc(-c2ncc(F)c3c(C(=O)C(=O)N4CCN(C(=O)c5ccccc5)CC4)c[nH]c23)n1 [Example 300]	–	–	–	0.2 to 1000	Low (0-0.100)	Yes	< 1000	–	–	–	–	–
